Counter-ions that a name gives are not always drawn.
Columns and labels:
HDAC8 = HDAC8 (Homo sapiens (Human), UniProt Q9BY41); assay: In vitro enzyme inhibition assay - HDAC (HDAC-Glo I/II), HDAC8; format: biochemical; conditions: read-out: HDAC IC50 (nM) HDAC 8
How it was run: (§1)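 Eight compound concentrations (5-fold gradient; 1 mM DMSO stock) were assayed by HDAC-Glo I/II luminescence. IC50 was obtained by four-parameter fitting.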

NCI-H1417 cells = assay: In vitro cell inhibition assay - H1417 cell proliferation (CellTiter-Glo); format: cell-based; conditions: Homo sapiens, NCI-H1417, H1417 small cell lung cancer cell proliferation
How it was run: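 Cells exposed to 8 compound concentrations (5-fold dilutions) in BEGM with 10% FBS for 7 days at 37° C., 5% CO2. Viable cells measured by CellTiter-Glo luminescence; inhibition versus no-inhibitor and no-cell controls, IC50 fitted.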

NCI-H69 cells = assay: In vitro cell inhibition assay - NCI-H69 cell proliferation (CellTiter-Glo); format: cell-based; conditions: Homo sapiens, NCI-H69, H69 small cell lung cancer cell proliferation
How it was run: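 CellTiter-Glo luminescence measured viability after a 7-day, 37° C. exposure of NCI-H69 cells (1×10^3/well) to an 8-point, 5-fold dilution series in RPMI-640/20% FBS. Inhibition was normalised to untreated and cell-free wells and IC50 derived by curve fitting.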

HDAC1 = HDAC1 (Homo sapiens (Human), UniProt Q13547); assay: In vitro enzyme inhibition assay - HDAC (HDAC-Glo I/II), HDAC1; format: biochemical; conditions: read-out: HDAC IC50 (nM) HDAC 1
HDAC1, sequence (Q13547 whole entry): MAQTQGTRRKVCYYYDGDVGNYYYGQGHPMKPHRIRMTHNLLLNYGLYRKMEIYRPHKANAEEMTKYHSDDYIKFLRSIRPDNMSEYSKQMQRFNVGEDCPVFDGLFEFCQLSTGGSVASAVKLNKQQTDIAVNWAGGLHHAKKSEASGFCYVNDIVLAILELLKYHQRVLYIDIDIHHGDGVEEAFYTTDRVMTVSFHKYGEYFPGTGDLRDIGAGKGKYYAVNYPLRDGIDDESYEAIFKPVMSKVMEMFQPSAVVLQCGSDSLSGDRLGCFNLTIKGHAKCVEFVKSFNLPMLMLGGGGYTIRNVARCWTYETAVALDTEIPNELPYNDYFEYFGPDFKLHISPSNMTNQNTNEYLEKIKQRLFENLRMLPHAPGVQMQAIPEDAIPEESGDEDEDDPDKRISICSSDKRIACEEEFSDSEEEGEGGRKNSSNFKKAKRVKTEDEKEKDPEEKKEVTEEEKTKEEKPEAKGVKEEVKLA
How it was run: as §1

NCI-H526 cells = assay: In vitro cell inhibition assay - NCI-H526 cell proliferation (CellTiter-Glo); format: cell-based; conditions: Homo sapiens, NCI-H526, 120 h, H526 small cell lung cancer cell proliferation, 5 days
How it was run: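 NCI-H526 cells plated at 1×10^3 per well overnight, then treated with 8 concentrations (5-fold dilutions) in RPMI-640 with 10% FBS for 5 days at 37° C., 5% CO2. Viable cells quantified by CellTiter-Glo luminescence; IC50 fitted from inhibition rates relative to no-inhibitor and no-cell controls.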

LSD1 = LSD1 (Homo sapiens (Human), UniProt O60341); assay: In vitro enzyme inhibition assay - LSD1 (HTRF); format: biochemical
pan-HDAC = assay: In vitro enzyme inhibition assay - HDAC (HDAC-Glo I/II), pan-HDAC; format: biochemical
How it was run: as §1

DU145 cells = assay: In vitro cell inhibition assay - DU145 cell proliferation (CellTiter-Glo); format: cell-based; conditions: Homo sapiens, DU-145, Du145 prostate cancer cell proliferation
How it was run: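 Viability read-out was CellTiter-Glo luminescence after a 6-day, 37° C exposure of DU145 cells (1×10^3/well, 10% FBS RPMI-640) to 8 compound concentrations in 5-fold steps.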

HDAC8, sequence (Q9BY41 whole entry): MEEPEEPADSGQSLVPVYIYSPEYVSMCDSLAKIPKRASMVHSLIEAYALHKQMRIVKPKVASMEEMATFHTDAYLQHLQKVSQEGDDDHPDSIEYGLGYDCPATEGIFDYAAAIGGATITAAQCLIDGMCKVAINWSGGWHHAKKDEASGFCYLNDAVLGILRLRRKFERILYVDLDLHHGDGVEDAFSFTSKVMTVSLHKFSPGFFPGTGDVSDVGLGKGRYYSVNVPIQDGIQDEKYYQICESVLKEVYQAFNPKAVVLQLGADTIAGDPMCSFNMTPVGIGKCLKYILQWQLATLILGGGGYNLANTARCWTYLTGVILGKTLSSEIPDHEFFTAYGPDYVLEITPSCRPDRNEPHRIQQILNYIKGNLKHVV

IC50 (HDAC8)	IC50 (NCI-H1417 cells)	IC50 (NCI-H69 cells)	IC50 (HDAC1)	IC50 (NCI-H526 cells)	IC50 (LSD1)	IC50 (pan-HDAC)	IC50 (DU145 cells)	SMILES
137 nM	2.7 nM	82.7 nM	156 nM	127 nM	1.05 nM	57.3 nM	187 nM	Cc1noc2cc(-c3cnc(N4CCC(NCc5ccc(/C=C/C(=O)NO)cc5)CC4)c(C#N)c3-c3ccc(C#N)c(F)c3)c(F)cc12 [Example 110, (E)-3-(4-((1-(3-Cyano-4-(4-cyano-3-fluorophenyl)-5-(5-fluoro-3-methylbenzo[d]isoxazol-6-yl)pyridin-2-yl)piperidin-4-yl)amino)methyl) phenyl)-N-hydroxyacrylamide formate]
358 nM	1.98 nM	3.41 nM	83.1 nM	16.2 nM	1.56 nM	65.3 nM	14.2 nM	N#Cc1ccc(-c2c(-c3ccc(C4CC4)c(O)c3)cnc(N3CCC(NCc4ccc(/C=C/C(=O)NO)cc4)CC3)c2C#N)cc1F [Example 111, (E)-3-(4-((1-(3-Cyano-4-(4-cyano-3-fluorophenyl)-5-(4-cyclopropyl-3-hydroxyphenyl)pyridin-2-yl)piperidin-4-yl)amino)methyl) phenyl)-N-hydroxyacrylamide formate]
81.4 nM	4.14 nM	32.7 nM	26.3 nM	63.5 nM	2.66 nM	26.9 nM	86.8 nM	COc1ccc(-c2cnc(N3CCC(NCc4cnc(/C=C/C(=O)NO)s4)CC3)c(C#N)c2-c2ccc(C#N)c(F)c2)cc1O [Example 112, (E)-3-(5-((1-(3-Cyano-4-(4-cyano-3-fluorophenyl)-5-(3-hydroxy-4-methoxyphenyl)pyridin-2-yl)piperidin-4-yl)amino)methyl) thiazol-2-yl)-N-hydroxyacrylamide formate]
72.7 nM	29.8 nM	76.3 nM	17.3 nM	80 nM	2 nM	25 nM	130 nM	N#Cc1ccc(-c2cnc(N3CCC(NCc4ccc(/C=C/C(=O)NO)cc4)CC3)c(C#N)c2-c2ccc(C#N)c(F)c2)cc1O [Example 113, (E)-3-(4-(((1-(3-Cyano-4-(4-cyano-3-fluorophenyl)-5-(4-cyano-3-hydroxyphenyl)pyridin-2-yl)piperidin-4-yl)amino)methyl)phenyl)-N-hydroxyacrylamide formate]
571 nM	9.4 nM	78.2 nM	178 nM	155 nM	0.97 nM	175 nM	391 nM	COc1ccc(-c2cnc(N3CCC(NCc4cccc(/C=C/C(=O)NO)c4)CC3)c(C#N)c2-c2ccc(C#N)c(F)c2)cc1O [Example 114, (E)-3-(3-(3-Cyano-4-(4-cyano-3-fluorophenyl)-5-(3-hydroxy-4-methoxyphenyl)pyridin-2-yl)piperidin-4-yl)amino)methyl) phenyl)-N-hydroxyacrylamide formate]
212 nM	4.89 nM	33.8 nM	5.59 nM	33.8 nM	1.82 nM	12.7 nM	82 nM	N#Cc1ccc(-c2c(-c3ccc(OC(F)(F)F)c(O)c3)cnc(N3CCC(NCc4ccc(/C=C/C(=O)NO)cc4)CC3)c2C#N)cc1F [Example 116, (E)-3-(4-(1-(3-Cyano-4-(4-cyano-3-fluorophenyl)-5-(3-hydroxy-4-(trifluoromethoxy)phenyl)pyridin-2-yl)piperidin-4-yl)amino)methyl) phenyl)-N-hydroxyacrylamide formate]
30.3 nM	2.8 nM	3.24 nM	0.44 nM	8.09 nM	0.58 nM	0.75 nM	11.8 nM	COc1ccc(-c2cnc(N3CCC(NCc4ccc(/C=C/C(=O)NO)cc4)CC3)c(C#N)c2-c2ccc(C#N)cc2)cc1O [Example 118, (E)-3-(4-((1-(3-Cyano-4-(4-cyanophenyl)-5-(3-hydroxy-4-methoxyphenyl)pyridin-2-yl)piperidin-4-yl)amino)methyl) phenyl)-N-hydroxyacrylamide formate]
179 nM	3.34 nM	18.3 nM	3.95 nM	20.6 nM	1.63 nM	7.69 nM	30.5 nM	N#Cc1ccc(-c2c(-c3ccc(OC(F)F)c(O)c3)cnc(N3CCC(NCc4ccc(/C=C/C(=O)NO)cc4)CC3)c2C#N)cc1F [Example 124, (E)-3-(4-(((1-(3-Cyano-4-(4-cyano-3-fluorophenyl)-5-(4-(difluoromethoxy)-3-hydroxyphenyl)pyridin-2-yl))piperidin-4-yl)amino)methyl) phenyl)-N-hydroxyacrylamide formate]

Further lines, the compound ahead of its results:

SMILES	IC50 (HDAC8)	IC50 (NCI-H1417 cells)	IC50 (NCI-H69 cells)	IC50 (HDAC1)	IC50 (NCI-H526 cells)	IC50 (LSD1)	IC50 (pan-HDAC)	IC50 (DU145 cells)
COc1ccc(-c2cnc(N3CCC(NCc4ccc(/C=C/C(=O)NO)cc4)CC3)c(C#N)c2-c2ccc(C#N)c(F)c2)cc1 [Example 52, (E)-3-(4-(((1-(3-Cyano-4-(4-cyano-3-fluorophenyl)-5-(4-methoxyphenyl)pyridin-2-yl)piperidin-4-yl)amino)methyl)phenyl)-N-hydroxyacrylamide hydrochloride]	140 nM	81.6 nM	71 nM	15.9 nM	111 nM	47.8 nM	4.22 nM	216 nM
Cc1ccc(-c2cnc(N3CCC(NCc4ccc(/C=C/C(=O)NO)cc4)CC3)c(C#N)c2-c2ccc(C#N)c(F)c2)cc1O [Example 102, (E)-3-(4-(((1-(3-Cyano-4-(4-cyano-3-fluorophenyl)-5-(3-hydroxy-4-methylphenyl)pyridin-2-yl)piperidin-4-yl)amino)methyl)phenyl)-N-hydroxyacrylamide formate]	178 nM	3.1 nM	0.36 nM	16.3 nM	4.27 nM	1.31 nM	45.2 nM	7.43 nM
COc1ccc(-c2cnc(N3CCC(NCc4ccc(/C=C/C(=O)NO)cn4)CC3)c(C#N)c2-c2ccc(C#N)c(F)c2)cc1O [Example 104, (E)-3-(6-((1-(3-Cyano-4-(4-cyano-3-fluorophenyl)-5-(3-hydroxy-4-methoxyphenyl)pyridin-2-yl)piperidin-4-yl)amino)methyl) pyridin-3-yl)-N-hydroxyacrylamide formate]	70.1 nM	6.58 nM	2.29 nM	5.3 nM	16.9 nM	0.71 nM	10.7 nM	24.8 nM
COc1ccc(-c2cnc(N3CCC(NCc4ccc(/C=C/C(=O)NO)s4)CC3)c(C#N)c2-c2ccc(C#N)c(F)c2)cc1O [Example 105, (E)-3-(5-(((1-(3-Cyano-4-(4-cyano-3-fluorophenyl)-5-(3-hydroxy-4-methoxyphenyl)pyridin-2-yl)piperidin-4-yl)amino)methyl)thiophen-2-yl)-N-hydroxyacrylamide formate]	185 nM	4.48 nM	102 nM	120 nM	124 nM	1.24 nM	114 nM	317 nM
COc1ccc(-c2cnc(N3CCC(NCc4cnc(/C=C/C(=O)NO)nc4)CC3)c(C#N)c2-c2ccc(C#N)c(F)c2)cc1O [Example 106, (E)-3-(5-(((1-(3-Cyano-4-(4-cyano-3-fluorophenyl)-5-(3-hydroxy-4-methoxyphenyl)pyridin-2-yl)piperidin-4-yl)amino)methyl)pyrimidin-2-yl)-N-hydroxyacrylamide formate]	13.1 nM	3.29 nM	3.48 nM	3.81 nM	7.09 nM	2.62 nM	4.85 nM	13.6 nM
COc1ccc(-c2cnc(N3CCC(NCc4ccc(/C=C/C(=O)NO)c(OC)c4)CC3)c(C#N)c2-c2ccc(C#N)c(F)c2)cc1O [Example 108, (E)-3-(4-(((1-(3-Cyano-4-(4-cyano-3-fluorophenyl)-5-(3-hydroxy-4-methoxyphenyl)pyridin-2-yl)piperidin-4-yl)amino)methyl)-2-methoxyphenyl)-N-hydroxyacrylamide formate]	93.1 nM	4.4 nM	16 nM	25.8 nM	13.8 nM	2.3 nM	26.6 nM	28.6 nM
